From patent publication US20240279218A1 (Hoffmann-La Roche Inc., priority 2016, published 2024)
pKi: −log10 of the molar value.

Legend:
h-GABA-A α5β3γ2 [1] = molecular target: T1, h-GABA-A α5β3γ2 (Homo sapiens (Human), UniProt P18507+P31644); test: [3H]flumazenil competition binding assay, membranes of HEK293 cells expressing human GABAA receptors; conditions: displacement of [3H]flumazenil 0.5 nM, HEK293 cells expressing human receptors, mean of two determinations; read-out: Ki h-GABA-A α5β3γ2
Protocol: The affinity of compounds at GABAA receptor subtypes was measured by competition for [3H]flumazenil (85 Ci/mmol; Roche) binding to HEK293 cells expressing rat (stably transfected) or human (transiently transfected) receptors of composition α1β3γ2, α2β3γ2, α3β3γ2 and α5β3γ2.
Cell pellets were suspended in Krebs-tris buffer (4.8 mM KCl, 1.2 mM CaCl2, 1.2 mM MgCl2, 120 mM NaCl, 15 mM Tris; pH 7.5; binding assay buffer), homogenized by polytron for ca. 20 sec on ice and centrifuged for 60 min at 4° C. (50000 g; Sorvall, rotor: SM24=20000 rpm). The cell pellets were resuspended in Krebs-tris buffer and homogenized by polytron for ca. 15 sec on ice. Protein was measured (Bradford method, Bio-Rad) and aliquots of 1 mL were prepared and stored at −80° C.
Assays were incubated to equilibrium for 1 hour at 4° C. and harvested onto GF/C uni-filters (Packard) by filtration using a Packard harvester and washing with ice-cold wash buffer (50 mM Tris; pH 7.5). After drying, filter-retained radioactivity was detected by liquid scintillation counting. Ki values were calculated using Excel-Fit (Microsoft) and are the means of two determinations.

h-GABA-A α5β3γ2 [2] = molecular target: T1, h-GABA-A α5β3γ2; test: Two-electrode voltage clamp electrophysiology in Xenopus oocytes expressing GABAA receptors, modulation of GABA EC20 current; type: cell-based; conditions: Xenopus oocytes; for Efficacy (GABA) %: % modulation of GABA EC20 = 100*(Fold increase−1); for Fold increase h-GABA-A α5β3γ2 oocyte: GABA EC20, test compound at approx. 30 fold its Ki
Protocol: Xenopus laevis oocytes at maturation stages V-VI were used for the expression of cloned mRNA encoding GABAA receptor subunits. Oocytes ready for RNA micro-injection were bought from Ecocyte, Castrop-Rauxel, Germany and stored in modified Barth's medium (composition in mM: NaCl 88, KCl 1, NaHCO32.4, HEPES 10, MgSO4 0.82, CaNO3 0.33, CaCl2) 0.33, pH=7.5) at 20° C. until the experiment.
Oocytes were plated in 96-well plates to be used in an automated instrument (Robo-ocyte, MultiChannelSystems, Reutlingen, Germany) for microinjection and electrophysiological recordings. Approximately 50 nl of an aqueous solution containing the RNA transcripts for the subunits of the desired GABAA receptor was injected into each oocyte. RNA concentrations ranged between 0.3 and 16 ng/μl/subunit and were adjusted in pilot experiments to obtain GABA responses of a suitable size and a maximal effect of the reference modulator, Beta-CCM (β-CCM), a betacarboline negative allosteric modulator (NAM) at the GABAA receptor benzodiazepine (BZD) binding site or Midazolam, a benzodiazepine positive allosteric modulator (PAM) at the GABAA receptor benzodiazepine (BZD) binding site. The concentration of the γ2 subunit encoding RNA usually was 5-to 10-fold higher than the RNAs encoding the other subunits. Oocytes were kept in modified Barth's medium (composition in mM: NaCl 88, KCl 1, NaHCO3 4, HEPES 10, MgSO4 0.82, CaNO3 0.33, CaCl2 0.33, pH=7.5) at 20° C. until the experiment.
Electrophysiological experiments were performed on days 3 to 5 after the micro-injection of mRNA. During the experiment the oocytes were constantly superfused by a solution containing (in mM) NaCl 90, KCl 1, HEPES 5, MgCl2 1, CaCl2 1 (pH 7.4). Oocytes were impaled by two glass microelectrodes (resistance: 0.4 MΩ) which were filled with a solution containing KCl 1M+K-acetate 1.5 M and voltage-clamped to −80 mV. The recordings were performed at room temperature using the Roboocyte two-electrode voltage clamp system (Multichannelsystem). After an initial equilibration period of 1.5 min GABA was added for 1.5 min at a concentration evoking approximately 20% of a maximal current response (EC20). After another rest interval of 2.5 min GABA was again added evoking a response of similar amplitude and shape. […] Current traces were recorded at a digitization rate of 10 Hz during and shortly before and after the GABA application.
Each compound and concentration was tested on at least 3 oocytes.
For the analysis, the digitized current traces of the first and second GABA response were superimposed and, if necessary, rescaled to equal maximal amplitudes. The ratio between the two responses during the time interval of test compound application was calculated point by point. The extremum of the resulting “ratio trace” was taken as the efficacy (“Fold increase”) of the compound expressed as “% modulation of GABA EC20” (100*(Fold increase−1)).

pKi (h-GABA-A α5β3γ2 [1]) | Efficacy (GABA) % (h-GABA-A α5β3γ2 [2]) [%] | Fold increase h-GABA-A α5β3γ2 oocyte (h-GABA-A α5β3γ2 [2]) | SMILES
8.08 | 63 | 1.63 | Cc1ccc(-c2noc(C)c2COc2ccc(C(=O)NCC3CC3)cn2)cn1 [Example 2, N-(cyclopropylmethyl)-6-((5-methyl-3-(6-methyl-3-pyridyl)isoxazol-4-yl)methoxy)pyridine-3-carboxamide]
8.85 | 41 | 1.41 | CCNC(=O)c1ccc(OCc2c(-c3ccc(C)nc3)noc2C)nc1 [Example 3, N-ethyl-6-((5-methyl-3-(6-methyl-3-pyridyl)isoxazol-4-yl)methoxy)pyridine-3-carboxamide]
8.14 | 150 | 2.5 | CCC[C@@H](CO)NC(=O)c1ccc(OCc2c(-c3ccc(C)nc3)noc2C)nc1 [Example 4, (S)—N-(1-hydroxypentan-2-yl)-6-((5-methyl-3-(6-methylpyridin-3-yl)isoxazol-4-yl)methoxy)nicotinamide]
7.23 | 245 | 3.45 | CCC[C@@H](CO)NC(=O)c1ccc(OCc2c(-c3ccc(C)nc3)noc2C2CC2)nc1 [Example 5, 6-((5-cyclopropyl-3-(6-methyl-3-pyridyl)isoxazol-4-yl)methoxy)-N-((1S)-1-(hydroxymethyl)butyl)pyridine-3-carboxamide]
7.27 | 167 | 2.67 | Cc1ccc(-c2noc(C3CC3)c2COc2ccc(C(=O)NC3CCOCC3)cn2)cn1 [Example 6, 6-((5-cyclopropyl-3-(6-methyl-3-pyridyl)isoxazol-4-yl)methoxy)-N-tetrahydropyran-4-yl-pyridine-3-carboxamide]
7.59 | 102 | 2.02 | CCC[C@@H](CO)NC(=O)c1ccc(OCc2c(-c3ccc(C)nc3)noc2C)nn1 [Example 7, (S)—N-(1-hydroxypentan-2-yl)-6-((5-methyl-3-(6-methylpyridin-3-yl)isoxazol-4-yl)methoxy)pyridazine-3-carboxamide]
7.86 | 62 | 1.62 | Cc1ccc(-c2noc(C)c2COc2cc3c(cn2)C(=O)N(CC(C)C)C3)cn1 [Example 9, 2-isobutyl-6-((5-methyl-3-(6-methylpyridin-3-yl)isoxazol-4-yl)methoxy)-1H-pyrrolo[3,4-c]pyridin-3(2H)-one]
7.72 | 80 | 1.8 | Cc1ccc(-c2noc(C)c2COc2cc3c(cn2)C(=O)N(C)C3)cn1 [Example 10, 2-methyl-6-((5-methyl-3-(6-methylpyridin-3-yl)isoxazol-4-yl)methoxy)-1H-pyrrolo[3,4-c]pyridin-3(2H)-one]
7.95 | 55 | 1.55 | Cc1ccc(-c2noc(C)c2COc2ccc(C(=O)NCC(C)C)cn2)cn1 [Example 11, N-isobutyl-6-((5-methyl-3-(6-methylpyridin-3-yl)isoxazol-4-yl)methoxy)nicotinamide]
7.79 | 74 | 1.74 | Cc1ccc(-c2noc(C)c2COc2cc3c(cn2)C(=O)N(CCO)C3)cn1 [Example 12, 2-(2-hydroxyethyl)-6-((5-methyl-3-(6-methylpyridin-3-yl)isoxazol-4-yl)methoxy)-1H-pyrrolo[3,4-c]pyridin-3(2H)-one]
7.84 | 158 | 2.58 | CCC[C@@H](CO)N1Cc2cc(OCc3c(-c4ccc(C)nc4)noc3C)ncc2C1=O [Example 13, (S)-2-(1-hydroxypentan-2-yl)-6-((5-methyl-3-(6-methylpyridin-3-yl)isoxazol-4-yl)methoxy)-1H-pyrrolo[3,4-c]pyridin-3(2H)-one]
7.13 | 160 | 2.6 | CCC[C@@H](CO)NC(=O)c1cnc(OCc2c(-c3ccc(C)nc3)noc2C)cn1 [Example 14, N-((1S)-1-(hydroxymethyl)butyl)-5-((5-methyl-3-(6-methyl-3-pyridyl)isoxazol-4-yl)methoxy)pyrazine-2-carboxamide]
7.70 | 55 | 1.55 | Cc1ccc(-c2noc(C)c2COc2cnc(C(=O)NC3CCOCC3)cn2)cn1 [Example 15, 5-((5-methyl-3-(6-methylpyridin-3-yl)isoxazol-4-yl)methoxy)-N-(tetrahydropyran-4-yl)pyrazine-2-carboxamide]
7.72 | 85 | 1.85 | Cc1ccc(-c2noc(C)c2COc2ccc(C(=O)NC3CCS(=O)(=O)C3)cn2)cn1 (stereo not drawn) [Example 16, N-(1,1-dioxothiolan-3-yl)-6-((5-methyl-3-(6-methyl-3-pyridyl)isoxazol-4-yl)methoxy)pyridine-3-carboxamide]
8.01 | 60 | 1.6 | Cc1ccc(-c2noc(C)c2COc2ccc(C(N)=O)cn2)cn1 [Example 17, 6-((5-methyl-3-(6-methylpyridin-3-yl)isoxazol-4-yl)methoxy)nicotinamide]
7.99 | 59 | 1.59 | Cc1ccc(-c2noc(C)c2COc2ccc(C(N)=O)nn2)cn1 [Example 18, 6-((5-methyl-3-(6-methylpyridin-3-yl)isoxazol-4-yl)methoxy)pyridazine-3-carboxamide]
8.28 | 77 | 1.77 | Cc1ccc(-c2noc(C)c2COc2ccc(C(=O)N[C@H]3CCS(=O)(=O)C3)cn2)cn1 [Example 19, N-((3S)-1,1-dioxothiolan-3-yl)-6-((5-methyl-3-(6-methylpyridin-3-yl)-1,2-oxazol-4-yl)methoxy)pyridine-3-carboxamide]
7.93 | 95 | 1.95 | Cc1ccc(-c2noc(C)c2COc2ccc(C(=O)N[C@@H]3CCS(=O)(=O)C3)cn2)cn1 [Example 20, N-((3R)-1,1-dioxothiolan-3-yl)-6-((5-methyl-3-(6-methylpyridin-3-yl)-1,2-oxazol-4-yl)methoxy)pyridine-3-carboxamide]
8.27 | 119 | 2.19 | Cc1ccc(-c2noc(C)c2COc2ccc(C(=O)NC3CCS(=O)(=O)CC3)cn2)cn1 [Example 21, N-(1,1-dioxothian-4-yl)-6-((5-methyl-3-(6-methylpyridin-3-yl)-1,2-oxazol-4-yl)methoxy)pyridine-3-carboxamide]

SMILES | pKi (h-GABA-A α5β3γ2 [1]) | Efficacy (GABA) % (h-GABA-A α5β3γ2 [2]) [%] | Fold increase h-GABA-A α5β3γ2 oocyte (h-GABA-A α5β3γ2 [2])
Cc1ccc(-c2noc(C)c2COc2ccc(C(=O)NC3CCOCC3)nn2)cn1 [Example 8, 6-((5-methyl-3-(6-methylpyridin-3-yl)isoxazol-4-yl)methoxy)-N-(tetrahydropyran-4-yl)pyridazine-3-carboxamide] | 8.06 | 97 | 1.97
